{
  "source": "patent US20250163104A1",
  "about": "“MACROCYCLIC IMMUNOMODULATORS” (priority 2021, published 2025)",
  "note": "pIC50: −log10 of the molar value. *1 amine or outer side, *2 acyl side, *3 side chain or, on linkers, in order; H or OH if unused. Where a SMILES comes first, the peptide text is derived from it. Bridges are numbered along the chain shown (N, C = ends). [ ]: non-standard residue; d: D form. The star is where a group is joined. ξ: configuration not given here. Bip = N[C@@H](Cc1ccc(-c2ccccc2)cc1)C(=O)O; Phe(3-Me) = Cc1cccc(C[C@H](N)C(=O)O)c1; 4Pal = N[C@@H](Cc1ccncc1)C(=O)O; Cha = N[C@@H](CC1CCCCC1)C(=O)O; Cit = NC(=O)NCCC[C@H](N)C(=O)O; X6 = O=C(C(CCCO)N[*:1])[*:2]; ξCit = NC(=O)NCCCC(N)C(=O)O; Carboxymethyl = O=C(O)C*; Orn = NCCC[C@H](N)C(=O)O; Pra = C#CC[C@H](N)C(=O)O; Dab = NCC[C@H](N)C(=O)O; Dap = NC[C@H](N)C(=O)O; ξOrn = NCCCC(N)C(=O)O",
  "data": [
    {"molecular_target": "T1, human PD-1 / PD-L1-Ig binding on Jurkat cell line over-expressing human PD-1 (Jurkat-PD-1) (Homo sapiens, UniProt Q15116)", "T1 construct": "expressed in transfected cells; host or cells: Jurkat", "T1 sequence (Q15116 25-288)": "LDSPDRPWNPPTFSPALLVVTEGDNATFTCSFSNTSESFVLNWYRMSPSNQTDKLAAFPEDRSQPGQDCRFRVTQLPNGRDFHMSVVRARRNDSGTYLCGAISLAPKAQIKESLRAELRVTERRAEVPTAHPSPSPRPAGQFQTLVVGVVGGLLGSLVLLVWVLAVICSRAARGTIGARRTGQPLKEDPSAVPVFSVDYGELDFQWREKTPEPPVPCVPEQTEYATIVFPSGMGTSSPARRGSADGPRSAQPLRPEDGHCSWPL", "assay": "Jurkat-PD-1 Cell Binding High-Content Screening Assay (CBA)", "assay_type": "cell-based", "conditions": "Jurkat-PD-1 cells, PE-labeled PD-L1-Ig 20 nM final; read-out: Jurkat HPD1_PDL1 IC50", "procedure,_shortened": "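Read-out: high-content imaging of PE-tagged PD-L1-Ig bound to Jurkat cells overexpressing human PD-1, after fixation with 4% paraformaldehyde and Hoechst 33342 nuclear staining. Ligand was used at 20 nM final for 1 hour, after a 2 h compound exposure at 37° C in serum-containing DMEM.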", "values": [
      {"smiles": "CCC(C)[C@@H]1NC(=O)[C@H](Cc2ccc(-c3ccccc3)cc2)NC(=O)[C@H](C(C)C)NC(=O)[C@H](Cc2cc(OC)ccc2F)NC(=O)[C@H](CC(=O)O)NC(=O)[C@H](Cc2ccc(OCC(=O)O)cc2)NC(=O)[C@H](CN)NC(=O)CSC[C@@H](C(=O)N[C@@H](C)C(N)=O)NC(=O)[C@H]([C@@H](C)O)NC(=O)[C@H](C(C)C)NC(=O)[C@H](CC2CCCCC2)NC(=O)[C@H](CCN)NC(=O)[C@@H](CC(C)C)NC(=O)[C@H](CCCN)NC1=O", "note": "(stereo partly drawn) [Compound 2248]", "pIC50": 7.86},
      {"smiles": "CCC(C)[C@@H]1NC(=O)[C@H](Cc2ccc(-c3ccccc3)cc2)NC(=O)[C@H](C(C)C)NC(=O)[C@H](Cc2cc(C)ccc2OC)NC(=O)[C@H](CC(=O)O)NC(=O)[C@H](Cc2ccc(OCC(=O)O)cc2)NC(=O)[C@H](CN)NC(=O)CSC[C@@H](C(=O)N[C@@H](C)C(N)=O)NC(=O)[C@H]([C@@H](C)O)NC(=O)[C@H](C(C)C)NC(=O)[C@H](CC2CCCCC2)NC(=O)[C@H](CCN)NC(=O)[C@@H](CC(C)C)NC(=O)[C@H](CCCN)NC1=O", "note": "(stereo partly drawn) [Compound 2249]", "pIC50": 6.87},
      {"smiles": "CC(C)C[C@H]1NC(=O)[C@H](CCCN)NC(=O)[C@H](CCCCN)NC(=O)[C@H](Cc2ccc(-c3ccccc3)cc2)NC(=O)[C@H](C(C)C)NC(=O)[C@H](Cc2c[nH]c3ccccc23)NC(=O)[C@H](CC(=O)O)NC(=O)[C@H](Cc2ccncc2)NC(=O)[C@H](CN)NC(=O)CSC[C@@H](C(=O)N[C@@H](CCCN)C(N)=O)NC(=O)[C@H]([C@@H](C)O)NC(=O)[C@H](C(C)C)NC(=O)[C@H](CC2CCCCC2)NC(=O)[C@H](CCN)NC1=O", "note": "[Compound 2250] ({CH2CO}-[Dap][4Pal]DWV[Bip]K[Orn][dL][Dab][Cha]VTC[Orn]-NH2; thioether N-14)", "pIC50": 7.36},
      {"smiles": "CC(C)C[C@H]1NC(=O)[C@H](CCCN)NC(=O)[C@H](CCCCN)NC(=O)[C@H](Cc2ccc(-c3ccccc3)cc2)NC(=O)[C@H](C(C)C)NC(=O)[C@H](Cc2c[nH]c3ccccc23)NC(=O)[C@H](CC(=O)O)NC(=O)[C@H](Cc2ccncc2)NC(=O)[C@H](CN)NC(=O)CSC[C@@H](C(=O)N[C@@H](CCCN)C(N)=O)NC(=O)[C@H](CN)NC(=O)[C@H](C(C)C)NC(=O)[C@H](CC2CCCCC2)NC(=O)[C@H](CCN)NC1=O", "note": "[Compound 2251] ({CH2CO}-[Dap][4Pal]DWV[Bip]K[Orn][dL][Dab][Cha]V[Dap]C[Orn]-NH2; thioether N-14)", "pIC50": 6.86},
      {"smiles": "CC(C)C[C@H]1NC(=O)[C@H](CCCN)NC(=O)[C@H](CCCCN)NC(=O)[C@H](Cc2ccc(-c3ccccc3)cc2)NC(=O)[C@H](C(C)C)NC(=O)[C@H](Cc2c[nH]c3ccccc23)NC(=O)[C@H](CC(=O)O)NC(=O)[C@H](Cc2ccncc2)NC(=O)[C@H](CN)NC(=O)CSC[C@@H](C(=O)N[C@@H](CCCN)C(N)=O)NC(=O)[C@H](CCCN)NC(=O)[C@H](C(C)C)NC(=O)[C@H](CC2CCCCC2)NC(=O)[C@H](CCN)NC1=O", "note": "[Compound 2253] ({CH2CO}-[Dap][4Pal]DWV[Bip]K[Orn][dL][Dab][Cha]V[Orn]C[Orn]-NH2; thioether N-14)", "pIC50": 6.86},
      {"smiles": "CC(C)C[C@H]1NC(=O)[C@H](CCCN)NC(=O)[C@H](CCCCN)NC(=O)[C@H](Cc2ccc(-c3ccccc3)cc2)NC(=O)[C@H](C(C)C)NC(=O)[C@H](Cc2c[nH]c3ccccc23)NC(=O)[C@H](CC(=O)O)NC(=O)[C@H](Cc2ccncc2)NC(=O)[C@H](CN)NC(=O)CSC[C@@H](C(=O)N[C@@H](CCCN)C(N)=O)NC(=O)[C@H](CCCNC(=N)N)NC(=O)[C@H](C(C)C)NC(=O)[C@H](CC2CCCCC2)NC(=O)[C@H](CCN)NC1=O", "note": "[Compound 2254] ({CH2CO}-[Dap][4Pal]DWV[Bip]K[Orn][dL][Dab][Cha]VRC[Orn]-NH2; thioether N-14)", "pIC50": 6.91},
      {"smiles": "Cc1cccc(C[C@@H]2NC(=O)[C@H](CC(=O)O)NC(=O)[C@H](Cc3ccc(OCC(=O)O)cc3)NC(=O)[C@H](CN)NC(=O)CSC[C@@H](C(=O)NCC(N)=O)NC(=O)[C@H]([C@@H](C)O)NC(=O)[C@H](C(C)C)NC(=O)[C@H](CC3CCCCC3)NC(=O)[C@H](CCN)NC(=O)[C@@H](CC(C)C)NC(=O)[C@H](CCCN)NC(=O)[C@H](CCCNC(N)=O)NC(=O)[C@H](Cc3ccc(-c4ccccc4)cc3)NC(=O)[C@H](C(C)C)NC2=O)c1", "note": "[Compound 2255] ({CH2CO}-[Dap]Y(Carboxymethyl)D[Phe(3-Me)]V[Bip][Cit][Orn][dL][Dab][Cha]VTCG-NH2; thioether N-14)", "pIC50": 7.93},
      {"smiles": "Cc1cccc(C[C@@H]2NC(=O)[C@H](CC(=O)O)NC(=O)[C@H](Cc3ccc(OCC(=O)O)cc3)NC(=O)[C@H](CN)NC(=O)CSC[C@@H](C(=O)N[C@@H](CCN)C(N)=O)NC(=O)C(CCCN)NC(=O)[C@H](C(C)C)NC(=O)[C@H](CC3CCCCC3)NC(=O)[C@H](CCN)NC(=O)[C@@H](CC(C)C)NC(=O)[C@H](CCCN)NC(=O)[C@H](Cc3ccc(O)cc3)NC(=O)[C@H](Cc3ccc(-c4ccccc4)cc3)NC(=O)[C@H](Cc3ccc(O)cc3)NC2=O)c1", "note": "(stereo partly drawn) [Compound 2256] ({CH2CO}-[Dap]Y(Carboxymethyl)D[Phe(3-Me)]Y[Bip]Y[Orn][dL][Dab][Cha]V[ξOrn]C[Dab]-NH2; thioether N-14)", "pIC50": 8.31},
      {"smiles": "Cc1cccc(C[C@@H]2NC(=O)[C@H](CC(=O)O)NC(=O)[C@H](Cc3ccc(OCC(=O)O)cc3)NC(=O)[C@H](CN)NC(=O)CSC[C@@H](C(=O)N[C@@H](CCN)C(N)=O)NC(=O)C(CCCO)NC(=O)[C@H](C(C)C)NC(=O)[C@H](CC3CCCCC3)NC(=O)[C@H](CCN)NC(=O)[C@@H](CC(C)C)NC(=O)[C@H](CCCN)NC(=O)[C@H](Cc3ccc(O)cc3)NC(=O)[C@H](Cc3ccc(-c4ccccc4)cc3)NC(=O)[C@H](C(C)C)NC2=O)c1", "note": "(stereo partly drawn) [Compound 2257] ({CH2CO}-[Dap]Y(Carboxymethyl)D[Phe(3-Me)]V[Bip]Y[Orn][dL][Dab][Cha]V[X6]C[Dab]-NH2; thioether N-14)", "pIC50": 8.11},
      {"smiles": "C#CC[C@H](NC(=O)[C@H](CCN)NC(=O)[C@@H]1CSCC(=O)N[C@@H](CN)C(=O)N[C@@H](Cc2ccc(OCC(=O)O)cc2)C(=O)N[C@@H](CC(=O)O)C(=O)N[C@@H](Cc2cccc(C)c2)C(=O)N[C@@H](C(C)C)C(=O)N[C@@H](Cc2ccc(-c3ccccc3)cc2)C(=O)NC(CCCNC(N)=O)C(=O)N[C@@H](CCCN)C(=O)N[C@H](CC(C)C)C(=O)N[C@@H](CCN)C(=O)N[C@@H](CC2CCCCC2)C(=O)N[C@@H](C(C)C)C(=O)N[C@@H]([C@@H](C)O)C(=O)N1)C(=O)O", "note": "(stereo partly drawn) [Compound 2258] ({CH2CO}-[Dap]Y(Carboxymethyl)D[Phe(3-Me)]V[Bip][ξCit][Orn][dL][Dab][Cha]VTC[Dab][Pra]-OH; thioether N-14)", "pIC50": 7.83},
      {"smiles": "C#CC[C@H](NC(=O)[C@H](C)NC(=O)[C@@H]1CSCC(=O)N[C@@H](CN)C(=O)N[C@@H](Cc2ccc(OCC(=O)O)cc2)C(=O)N[C@@H](CC(=O)O)C(=O)N[C@@H](Cc2cccc(C)c2)C(=O)N[C@@H](C(C)C)C(=O)N[C@@H](Cc2ccc(-c3ccccc3)cc2)C(=O)N[C@@H](CCCNC(N)=O)C(=O)N[C@@H](CCCN)C(=O)N[C@H](CC(C)C)C(=O)N[C@@H](CCN)C(=O)N[C@@H](CC2CCCCC2)C(=O)N[C@@H](C(C)C)C(=O)N[C@@H]([C@@H](C)O)C(=O)N1)C(=O)O", "note": "[Compound 2259]", "pIC50": 7.35},
      {"smiles": "C#CC[C@H](NC(=O)CNC(=O)[C@@H]1CSCC(=O)N[C@@H](CN)C(=O)N[C@@H](Cc2ccc(OCC(=O)O)cc2)C(=O)N[C@@H](CC(=O)O)C(=O)N[C@@H](Cc2cccc(C)c2)C(=O)N[C@@H](C(C)C)C(=O)N[C@@H](Cc2ccc(-c3ccccc3)cc2)C(=O)N[C@@H](CCCNC(N)=O)C(=O)N[C@@H](CCCN)C(=O)N[C@H](CC(C)C)C(=O)N[C@@H](CCN)C(=O)N[C@@H](CC2CCCCC2)C(=O)N[C@@H](C(C)C)C(=O)N[C@@H]([C@@H](C)O)C(=O)N1)C(=O)O", "note": "[Compound 2260] ({CH2CO}-[Dap]Y(Carboxymethyl)D[Phe(3-Me)]V[Bip][Cit][Orn][dL][Dab][Cha]VTCG[Pra]-OH; thioether N-14)", "pIC50": 7.55},
      {"smiles": "C#CC[C@H](NC(=O)[C@H](CCN)NC(=O)[C@@H]1CSCC(=O)N[C@@H](CN)C(=O)N[C@@H](Cc2ccc(OCC(=O)O)cc2)C(=O)N[C@@H](CC(=O)O)C(=O)N[C@@H](Cc2cccc(C)c2)C(=O)N[C@@H](C(C)C)C(=O)N[C@@H](Cc2ccc(-c3ccccc3)cc2)C(=O)N[C@@H](CCCNC(N)=O)C(=O)N[C@@H](CCCN)C(=O)N[C@H](CC(C)C)C(=O)N[C@@H](CCN)C(=O)N[C@@H](CC2CCCCC2)C(=O)N[C@@H](C(C)C)C(=O)N[C@@H]([C@@H](C)O)C(=O)N1)C(N)=O", "note": "[Compound 2261] ({CH2CO}-[Dap]Y(Carboxymethyl)D[Phe(3-Me)]V[Bip][Cit][Orn][dL][Dab][Cha]VTC[Dab][Pra]-NH2; thioether N-14)", "pIC50": 7.80},
      {"smiles": "C#CC[C@H](NC(=O)[C@H](C)NC(=O)[C@@H]1CSCC(=O)N[C@@H](CN)C(=O)N[C@@H](Cc2ccc(OCC(=O)O)cc2)C(=O)N[C@@H](CC(=O)O)C(=O)N[C@@H](Cc2cccc(C)c2)C(=O)N[C@@H](C(C)C)C(=O)N[C@@H](Cc2ccc(-c3ccccc3)cc2)C(=O)N[C@@H](CCCNC(N)=O)C(=O)N[C@@H](CCCN)C(=O)N[C@H](CC(C)C)C(=O)N[C@@H](CCN)C(=O)N[C@@H](CC2CCCCC2)C(=O)N[C@@H](C(C)C)C(=O)N[C@@H]([C@@H](C)O)C(=O)N1)C(=O)O", "note": "[Compound 2262]", "pIC50": 7.20},
      {"smiles": "C#CC[C@H](NC(=O)CNC(=O)[C@@H]1CSCC(=O)N[C@@H](CN)C(=O)N[C@@H](Cc2ccc(OCC(=O)O)cc2)C(=O)N[C@@H](CC(=O)O)C(=O)N[C@@H](Cc2cccc(C)c2)C(=O)N[C@@H](C(C)C)C(=O)N[C@@H](Cc2ccc(-c3ccccc3)cc2)C(=O)N[C@@H](CCCNC(N)=O)C(=O)N[C@@H](CCCN)C(=O)N[C@H](CC(C)C)C(=O)N[C@@H](CCN)C(=O)N[C@@H](CC2CCCCC2)C(=O)N[C@@H](C(C)C)C(=O)N[C@@H]([C@@H](C)O)C(=O)N1)C(=O)O", "note": "[Compound 2263] ({CH2CO}-[Dap]Y(Carboxymethyl)D[Phe(3-Me)]V[Bip][Cit][Orn][dL][Dab][Cha]VTCG[Pra]-OH; thioether N-14)", "pIC50": 7.92}
    ]}
  ]
}
